Reference: ChEMBL document CHEMBL5316277, “Discovery of Spiro[pyrrolidine-3,3'-oxindole] LXRβ Agonists for the Treatment of Osteoporosis” (J Med Chem, 2023)
Calls of active or inactive are those of the source. The calls are words filed in the database; no cut-off is given here.

How the values were obtained:
BMMC [1] = assay: Anti-osteoporosis activity in C57BL/6 mouse bone marrow macrophage cells assessed as inhibition of RANKL-induced osteoclastogenesis measured after 5 days in presence of MCSF by TRAP staining based assay; format: functional, cell-based; conditions: C57BL/6, BMMC, 120 h
BMMC [2] = assay: Cytotoxicity against C57BL/6 mouse bone marrow macrophage cells assessed as reduction in cell viability up to 10 uM incubated for 72 hrs by MTT assay; format: toxicity, cell-based
BMMC [3] = assay: Anti-osteoporosis activity in C57BL/6 mouse bone marrow macrophage cells assessed as inhibition of RANKL-induced osteoclastogenesis at more than 10 uM measured after 5 days in presence of MCSF by TRAP staining based assay; format: functional, cell-based; conditions: time 5.0 day

`COCc1ccc(-c2cc(F)cc([C@H]3N(S(=O)(=O)C(C)C)CC[C@]34C(=O)N(C)c3ccccc34)c2)cc1S(C)(=O)=O` showed an IC50 (BMMC [1]) of 200 nM.
For `COC(=O)c1ccc(-c2cc(F)cc([C@H]3N(C(=O)OC(C)(C)C)CC[C@]34C(=O)Nc3ccccc34)c2)cc1S(C)(=O)=O`, the Activity (BMMC [2]) was “Non-Toxic”.
For `COC(=O)c1ccc(-c2cccc([C@H]3N(C(=O)OC(C)(C)C)CC[C@]34C(=O)N(C)c3ccccc34)c2)cc1S(C)(=O)=O`, the IC50 (BMMC [1]) was 200 nM.
For `COC(=O)Cn1ccc2cc(-c3cc(F)cc([C@H]4N(C(=O)OC(C)(C)C)CC[C@]45C(=O)Nc4ccccc45)c3)ccc21`, the IC50 (BMMC [1]) was 3400 nM.
In the case of `CC(C)(C)OC(=O)N1CC[C@]2(C(=O)Nc3ccccc32)[C@H]1c1cc(F)cc(-c2ccc(CC(=O)O)c(Cl)c2)c1`, the inhibition (BMMC [3]) is reported as “inactive”.
With `COC(=O)c1c[nH]c2cc(-c3cc(F)cc([C@H]4N(C(=O)OC(C)(C)C)CC[C@]45C(=O)Nc4ccccc45)c3)ccc12` the IC50 (BMMC [1]) was 2890 nM.
With `COC(=O)c1ccc(-c2cc(F)cc([C@H]3N(S(=O)(=O)C(C)C)CC[C@]34C(=O)N(C)c3ccccc34)c2)cc1S(C)(=O)=O` the IC50 (BMMC [1]) was 200 nM.
For `COC(=O)c1c(F)cc(-c2cc(F)cc([C@H]3N(C(=O)OC(C)(C)C)CC[C@]34C(=O)Nc3ccccc34)c2)cc1F`, the IC50 (BMMC [1]) was 4140 nM.
In the case of `COC(=O)c1ccc(-c2cc(F)cc([C@H]3N(C(=O)OC(C)(C)C)CC[C@]34C(=O)N(C)c3ccccc34)c2)cc1S(C)(=O)=O`, the IC50 (BMMC [1]) is reported as 2170 nM.
Work on `COC(=O)Cc1ccc(-c2cc(F)cc([C@H]3N(C(=O)OC(C)(C)C)CC[C@]34C(=O)Nc3ccccc34)c2)cc1Cl` yielded an IC50 (BMMC [1]) of 3400 nM.
With `CC(C)(C)OC(=O)N1CC[C@]2(C(=O)Nc3ccccc32)[C@H]1c1cc(F)cc(-c2ccc(C(=O)O)c(S(C)(=O)=O)c2)c1` the inhibition (BMMC [3]) was “inactive”.
For `CC(C)(C)CC(=O)N1CC[C@]2(C(=O)Nc3ccccc32)[C@H]1c1cccc(-c2ccc(CO)c(S(C)(=O)=O)c2)c1`, the IC50 (BMMC [1]) was 360 nM.
In the case of `COC(=O)c1cn(C)c2cc(-c3cc(F)cc([C@H]4N(C(=O)OC(C)(C)C)CC[C@]45C(=O)Nc4ccccc45)c3)ccc12`, the IC50 (BMMC [1]) is reported as 1560 nM.
Molecule `COC(=O)c1ccc(-c2cc(F)cc([C@H]3N(C(=O)OC(C)(C)C)CC[C@]34C(=O)Nc3ccccc34)c2)cc1Cl` has an IC50 (BMMC [1]) of 8780 nM.
Work on `CC(C)(C)OC(=O)N1CC[C@]2(C(=O)Nc3ccccc32)[C@H]1c1cccc(-c2ccc(CO)c(S(C)(=O)=O)c2)c1` yielded an IC50 (BMMC [1]) of 200 nM.
In the case of `COCc1ccc(-c2cc(F)cc([C@H]3N(C(=O)OC(C)(C)C)CC[C@]34C(=O)N(C)c3ccccc34)c2)cc1S(C)(=O)=O`, the IC50 (BMMC [1]) is reported as 220 nM.
